The text below walks through data of article PMC4036672 (Analytical biochemistry, 2014).

Where a SMILES comes first, the peptide text is derived from it.

This assay concerns the target T1, Neuropilin-2 (Nrp2) (Homo sapiens, UniProt O60462).
T1 sequence (O60462 276-595): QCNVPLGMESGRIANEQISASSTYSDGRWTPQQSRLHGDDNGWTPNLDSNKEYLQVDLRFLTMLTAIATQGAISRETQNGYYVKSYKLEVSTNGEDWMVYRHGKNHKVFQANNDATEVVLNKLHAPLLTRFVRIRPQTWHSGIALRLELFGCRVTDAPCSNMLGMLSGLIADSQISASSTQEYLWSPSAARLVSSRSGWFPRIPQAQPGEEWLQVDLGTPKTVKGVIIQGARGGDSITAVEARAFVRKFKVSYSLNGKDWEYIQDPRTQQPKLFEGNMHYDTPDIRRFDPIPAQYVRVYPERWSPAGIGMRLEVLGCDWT
Description: competition plate assay: AP-VEGF-C binding to immobilised purified Nrp2-b1b2.
For `Oc1cc2c(cc1O)[C@H]1c3ccccc3CN[C@@H]1CC2` (racemic) [Dihydrexidine], the IC50 (commonly the concentration at which inhibition is half-maximal) stood at 113 µM.
The value for `CC(C)C[C@H](NC(=O)[C@H](Cc1c[nH]c2ccccc12)NC(=O)[C@@H](NC(=O)[C@H](C)N)[C@@H](C)O)C(=O)N1CCC[C@H]1C(=O)N1CCC[C@H]1C(=O)N[C@@H](CCCNC(=N)N)C(=O)O` [ATWLPPR] (H-ATWLPPR-OH) was 43 µM.
In turn, `COc1cc(C(=O)NS(=O)(=O)c2ccccc2C)ccc1Cc1cn(C)c2ccc(NC(=O)OC3CCCC3)cc12` [Zafirlukast] yielded an IC50 of 66 µM.
